Reference: patent US20230295200A1 (REGENTS OF THE UNIVERSITY OF MICHIGAN, priority 2022, published 2023)

Experiments:
STAT5A = molecular target: T1, STAT5A (Homo sapiens, UniProt P42229); test: Fluorescence polarization (FP) binding assay, STAT5A; details: FP competition, 5 nM fluorescein-labeled tracer, 200 nM protein, PBS pH7.4
T1 sequence (P42229 1-794): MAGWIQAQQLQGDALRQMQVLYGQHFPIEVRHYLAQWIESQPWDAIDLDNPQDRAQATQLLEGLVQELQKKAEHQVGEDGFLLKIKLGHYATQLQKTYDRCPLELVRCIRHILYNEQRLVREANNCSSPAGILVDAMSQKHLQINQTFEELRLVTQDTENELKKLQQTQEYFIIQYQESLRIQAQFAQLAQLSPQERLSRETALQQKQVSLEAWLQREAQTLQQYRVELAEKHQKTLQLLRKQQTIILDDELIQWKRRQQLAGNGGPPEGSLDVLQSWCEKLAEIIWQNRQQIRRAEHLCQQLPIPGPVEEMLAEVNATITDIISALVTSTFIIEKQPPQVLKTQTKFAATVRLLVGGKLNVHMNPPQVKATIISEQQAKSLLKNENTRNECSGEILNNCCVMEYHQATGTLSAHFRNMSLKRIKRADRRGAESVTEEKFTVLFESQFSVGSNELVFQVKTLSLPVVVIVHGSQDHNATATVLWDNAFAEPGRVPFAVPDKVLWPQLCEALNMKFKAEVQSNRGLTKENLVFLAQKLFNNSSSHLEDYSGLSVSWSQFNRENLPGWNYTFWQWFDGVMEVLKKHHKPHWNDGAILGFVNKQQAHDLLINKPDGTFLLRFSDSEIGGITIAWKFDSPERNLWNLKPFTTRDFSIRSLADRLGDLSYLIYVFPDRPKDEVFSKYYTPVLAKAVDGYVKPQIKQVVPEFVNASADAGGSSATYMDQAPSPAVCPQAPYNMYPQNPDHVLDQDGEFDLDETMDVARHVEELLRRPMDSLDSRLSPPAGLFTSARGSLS
How it was run: (§1)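 Fluorescence polarization is read after STAT5 or STAT6 protein (200 nM) and a fluorescein-labeled tracer (5 nM) equilibrate for 1 h at room temperature in DTT-containing PBS pH 7.4 with BGG and Tween-20. Inhibition constants are obtained by nonlinear curve fitting.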

STAT6 protein = molecular target: T2, STAT6 protein (Homo sapiens, UniProt P42226); test: Fluorescence polarization (FP) binding assay, STAT6; details: FP competition, 5 nM fluorescein-labeled tracer, 200 nM protein, PBS pH7.4; read-out: Binding STAT6
T2 sequence (P42226 1-847): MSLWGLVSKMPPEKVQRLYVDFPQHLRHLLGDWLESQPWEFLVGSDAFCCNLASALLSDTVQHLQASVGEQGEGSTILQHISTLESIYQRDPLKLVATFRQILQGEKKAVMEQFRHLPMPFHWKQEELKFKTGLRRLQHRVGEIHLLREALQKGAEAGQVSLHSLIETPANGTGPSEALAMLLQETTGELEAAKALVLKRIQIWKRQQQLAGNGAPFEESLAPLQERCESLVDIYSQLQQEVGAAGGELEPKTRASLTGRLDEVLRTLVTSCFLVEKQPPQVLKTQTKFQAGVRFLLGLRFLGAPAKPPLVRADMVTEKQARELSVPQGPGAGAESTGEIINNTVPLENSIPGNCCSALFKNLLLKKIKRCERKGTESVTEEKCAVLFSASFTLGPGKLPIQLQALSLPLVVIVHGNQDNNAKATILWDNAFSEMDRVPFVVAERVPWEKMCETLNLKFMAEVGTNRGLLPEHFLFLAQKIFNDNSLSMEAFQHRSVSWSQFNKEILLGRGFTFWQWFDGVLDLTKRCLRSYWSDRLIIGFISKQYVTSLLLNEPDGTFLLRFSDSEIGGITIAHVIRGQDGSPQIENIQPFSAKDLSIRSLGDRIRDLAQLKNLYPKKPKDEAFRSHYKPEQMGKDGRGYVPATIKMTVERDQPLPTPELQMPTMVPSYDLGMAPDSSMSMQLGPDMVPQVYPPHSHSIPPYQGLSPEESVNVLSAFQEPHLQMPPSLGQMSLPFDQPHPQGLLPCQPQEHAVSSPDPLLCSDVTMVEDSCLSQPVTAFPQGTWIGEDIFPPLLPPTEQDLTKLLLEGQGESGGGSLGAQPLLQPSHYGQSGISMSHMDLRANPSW
How it was run: as §1

Ki (STAT5A) [µM]	Ki (STAT6 protein) [µM]	Compound
> 10	1 to 10	CC(C)(C)[C@H](NC(=O)c1cc2cc(C(F)(F)P(=O)(O)O)ccc2s1)C(=O)N1CCC[C@H]1C(=O)N[C@H]1CCc2ccccc2C1 [Compound 214, ((2-(((S)-3,3-dimethyl-1-oxo-1-((S)-2-(((S)-1,2,3,4-tetrahydronaphthalen-2-yl)carbamoyl)pyrrolidin-1-yl)butan-2-yl)carbamoyl)benzo[b]thiophen-5-yl)difluoromethyl)phosphonic acid]
> 10	1 to 10	CC(C)(C)[C@H](NC(=O)c1cc2cc(C(F)(F)P(=O)(O)O)ccc2s1)C(=O)N1CCC[C@H]1C(=O)N[C@@H]1CCc2ccccc2C1 [Compound 215, ((2-(((S)-3,3-dimethyl-1-oxo-1-((S)-2-(((R)-1,2,3,4-tetrahydronaphthalen-2-yl)carbamoyl)pyrrolidin-1-yl)butan-2-yl)carbamoyl)benzo[b]thiophen-5-yl)difluoromethyl)phosphonic acid]
> 10	> 10	CC(C)(C)[C@H](NC(=O)c1cc2cc(C(F)(F)P(=O)(O)O)ccc2s1)C(=O)N1Cc2ccccc2C[C@H]1C(=O)N1CCOC(c2ccccn2)C1 (stereo partly drawn) [Compound 216, ((2-(((2S)-3,3-dimethyl-1-oxo-1-((3S)-3-(2-(pyridin-2-yl)morpholine-4-carbonyl)-3,4-dihydroisoquinolin-2(1H)-yl)butan-2-yl)carbamoyl)benzo[b]thiophen-5-yl)difluoromethyl)phosphonic acid]
0.1 to 1	1 to 10	CC(C)(C)[C@H](NC(=O)c1cc2cc(C(F)(F)P(=O)(O)O)ccc2s1)C(=O)N1CCC[C@H]1C(=O)Nc1ccc(-c2ccccc2)s1 [Compound 305, ((2-(((S)-3,3-dimethyl-1-oxo-1-((S)-2-((5-phenylthiophen-2-yl)carbamoyl)pyrrolidin-1-yl)butan-2-yl)carbamoyl)benzo[b]thiophen-5-yl)difluoromethyl)phosphonic acid]
1 to 10	> 10	CC(C)(C)[C@H](NC(=O)c1cc2cc(C(F)(F)P(=O)(O)O)ccc2s1)C(=O)N1CCCCC[C@H]1C(=O)Nc1ccc(-c2ccccc2)s1 [Compound 306, ((2-(((S)-3,3-dimethyl-1-oxo-1-((S)-2-((5-phenylthiophen-2-yl)carbamoyl)azepan-1-yl)butan-2-yl)carbamoyl)benzo[b]thiophen-5-yl)difluoromethyl)phosphonic acid]
1 to 10	0.1 to 1	CCO[C@@H]1CCN(C(=O)[C@@H](NC(=O)c2cc3cc(C(F)(F)P(=O)(O)O)ccc3s2)C(C)(C)C)[C@@H]1C(=O)N1CCO[C@H](c2ccccc2)C1 [Compound 307, ((2-(((S)-1-((2S,3R)-3-ethoxy-2-((R)-2-phenylmorpholine-4-carbonyl)pyrrolidin-1-yl)-3,3-dimethyl-1-oxobutan-2-yl)carbamoyl)benzo[b]thiophen-5-yl)difluoromethyl)phosphonic acid]
1 to 10	1 to 10	CCO[C@H]1CCN(C(=O)[C@@H](NC(=O)c2cc3cc(C(F)(F)P(=O)(O)O)ccc3s2)C(C)(C)C)[C@@H]1C(=O)N1CCO[C@H](c2ccccc2)C1 [Compound 308, ((2-(((S)-1-((2S,3S)-3-ethoxy-2-((R)-2-phenylmorpholine-4-carbonyl)pyrrolidin-1-yl)-3,3-dimethyl-1-oxobutan-2-yl)carbamoyl)benzo[b]thiophen-5-yl)difluoromethyl)phosphonic acid]
1 to 10	0.1 to 1	CN(C)C(=O)CCN(C(=O)[C@@H]1CCCN1C(=O)[C@@H](NC(=O)c1cc2cc(C(F)(F)P(=O)(O)O)ccc2s1)C(C)(C)C)c1ccc(-c2nccs2)cc1 [Compound 309, ((2-(((S)-1-((S)-2-((3-(dimethylamino)-3-oxopropyl)(4-(thiazol-2-yl)phenyl)carbamoyl)pyrrolidin-1-yl)-3,3-dimethyl-1-oxobutan-2-yl)carbamoyl)benzo[b]thiophen-5-yl)difluoromethyl)phosphonic acid]
